{"source": "patent US20050137251A1", "about": "“Dexanabinol and dexanabinol analogs regulate inflammation related genes” (priority 2002, published 2005)", "key": {"[1]": {"system": "LoVo colorectal cancer cells", "experiment": "Tumor growth of in vivo implanted LoVo colorectal cancer cells", "design": "species or system mice", "conditions": "end of 8 weeks treatment", "experimental": "Once we have shown that dexanabinol and its analogs were inhibitors of tumor cell proliferation in vitro, we wished to test if our compounds were as efficient in vivo. For this purpose the tumor cells LoVo (originating from a colorectal tumor; ATCC # CCL-229) were grown in DMEM containing 4.5 g/L glucose, 2 mM Glutamine, 1% Pen/Strep and 10% heat inactivated fetal calf serum. The cells were harvested using Trypsin-EDTA, the detached cells were rinsed in PBS, and counted. Predetermined amounts (1×10^6 cells in constant volume of […]) were injected s.c. above the right femoral joint in nude CD-1 male mice (average weight 20-25 gr, Harlan, Israel). Each treatment group was composed of at least 7 animals. Each animal was clinically monitored daily. The growth of the tumor was also monitored during the daily visits but actual measurements were recorded once a week. When tumors reach the appropriate size, animals are treated with either vehicle, 5 ml/kg/day, or with our test compounds, in the range of 2.5 to 10 mg/kg/day.\nThirty-six out of the 40 implanted mice developed a visible tumor within 5 to 6 weeks from tumor implantation. All animals were treated first on the 36th-42nd day of tumor implantation and the treatment lasted 8 weeks. One animal died in each treatment group between the 5th and the 7th week of treatment. The results are expressed as percent of tumor growth at the various days of the treatment as compared to baseline day 1. The results are depicted in FIG. 7 where we can observe that the efficacy of dexanabinol is inversely proportional to its dose in the range tested. 2.5 mg/kg (▪) seems more efficient than 5 mg/kg (▴), itself better than 10 mg/kg (x), which has very little effect, if at all, as compared to vehicle (--♦--). By the end of the treatment, 2.5 mg/kg dexanabinol reduced the tumor growth by 89%, 5 mg/kg by 61% and 10 mg/kg by 21%."}, "[2]": {"system": "carrageenan induced paw edema", "experiment": "Carrageenan induced paw edema", "format": "in vivo, mice", "conditions": "doses ranging from 0.2 to 0.5 mg/kg i.p., 3 hours after carrageenan"}, "Panc-1": {"system": "Panc-1", "experiment": "Panc-1 pancreatic tumor cell proliferation (crystal violet)", "format": "cell-based", "conditions": "Homo sapiens, 24 hours, read-out: Inhibition of Panc-1 cells proliferation", "experimental": "Cells from several tumor-derived cell lines are tested for their proliferation capacity in presence of our test compounds. Pancreatic tumor cell lines were obtained from ATCC. Panc-1 (ATCC # CRL-1469) were cultured in DMEM supplemented with 4 mM Glutamine, 4.5 g/L glucose, 1.5 g/L bicarbonate, antibiotics (penicillin, nystatin and streptomycin) and 10% heat inactivated fetal calf serum. Aspc-1 (ATCC # CRL-1682) were cultured in RPMI supplemented with 2 mM Glutamine, 10 mM HEPES, 1 mM sodium pyruvate, 4.5 g/L glucose, 1.5 g/L bicarbonate, antibiotics (penicillin, nystatin and streptomycin) and 20% heat inactivated fetal calf serum. Cells were seeded in a 24 well plate (10^5 cells/ml/well) and grown overnight. The cells are incubated with the test compounds (1-100 μM) or vehicle (0.1% DMSO final concentration). Cell viability was determined 24 hours later using standard crystal violet staining. The culture medium was removed from the wells and the cells were fixed by adding 1 ml/well of 2% formaldehyde in PBS for 10 minutes. […] The plates were agitated for 15 minutes at room temperature and 100 μl were transferred in duplicate to a 96 well plate for reading. Optical density (OD) of the cells was measured at 620 nm in an ELISA reader and results are expressed as % viable cells. Absorbance of untreated cells is recorded as 100%."}, "IL-2 secretion": {"system": "IL-2 secretion", "experiment": "IL-2 secretion (ELISA) in activated Jurkat T cells", "format": "cell-based", "conditions": "Homo sapiens, supernatant 24 hours after activation, read-out: IC50 for inhibition of IL-2 secretion", "description": "The technique used to quantify the amount of a given protein in a liquid sample, either tissue culture supernatant or body fluid, is based on Enzyme Linked ImmunoSorbent Assay (ELISA) methodology. Either commercially available or established in house, the assay is based on the capture of the protein of interest by specific antibodies bound to the bottom of an ELISA plate well. Unbound material is washed away, the captured protein is then exposed to a secondary antibody generally labeled with horseradish peroxidase (HRP) or alkaline phosphatase (ALP). Again the unbound material is washed away, the samples are then incubated with the appropriate substrate yielding a colorimetric reaction. The reaction is stopped and reading is carried out in a spectrophotometer at the appropriate wavelength. […] Concentration of the protein in the sample is calculated from the standard curve. […]\nIn parallel, the supernatant from each well was collected 24 hours after the activation and analyzed for the presence of secreted IL-2 by ELISA. […] The absorbance measured at 450 nm is proportional to the concentration of IL-2 in the sample or standard. A standard curve is obtained by plotting the concentrations of recombinant IL-2 standards versus their absorbances. The IL-2 concentrations in experimental samples are then determined using the standard curve."}, "COX-2 gene expression": {"system": "COX-2 gene expression", "experiment": "COX-2 gene expression in activated Jurkat T cells", "format": "cell-based, human", "conditions": "10 μM, normalized to GAPDH", "experimental": "II reverse transcriptase (Life Technologies).\nThe human acute lymphoma T cell line Jurkat (ATCC # TIB 152) was used to test the possible immunosuppressive effect of dexanabinol and its analogs on T cell activation. The Jurkat cells were grown in RPMI 1640 medium with 2 mM L-glutamine adjusted to contain 1.5 g/L sodium bicarbonate, 4.5 g/L glucose, 10 mM HEPES, 1.0 mM sodium pyruvate, and 10% heat inactivated fetal bovine serum. Cells were grown in tissue culture flasks and seeded at appropriate density into 24 wells tissue culture plates. 2×10^6 cells in one milliliter were stimulated using 10 ng/ml of PMA (Sigma) and 1 μM A23187 calcium ionophore (Sigma). […] The controls and test compounds were added at indicated concentrations one hour before stimulation.\nIn addition, we used this experimental system to test the impact of dexanabinol and its analogs on COX-2 gene expression. Following activation of Jurkat cells with PMA and calcium ionophore we obtained elevated COX-2 gene expression levels. The impact of the test compounds on COX-2 was assessed as previously described for IL-2. FIG. 2 depicts the results of this experiment as fold activation of COX-2 over non-activated T cells. The results are plotted after normalization to GAPDH expression. […]"}}, "data": [{"compound": "CCCCCCC(C)(C)c1cc(O)c2c(c1)OC(C)(C)[C@H]1CC=C(CO)C[C@H]21", "note": "[dexanabinol, 1,1-dimethylheptyl-(3S,4S)-7-hydroxy-Δ^6-tetrahydrocannabinol]", "values": [{"measurement": "Reduction of tumor growth", "setting": "[1]; 2.5 mg/kg/day", "result": 89, "unit": "%"}, {"measurement": "Reduction of tumor growth", "setting": "[1]; 5 mg/kg/day", "result": 61, "unit": "%"}, {"measurement": "Reduction of tumor growth", "setting": "[1]; 10 mg/kg/day", "result": 21, "unit": "%"}, {"measurement": "Reduction in paw thickness", "setting": "[2]", "result": "about 29%"}, {"measurement": "inhibition at 15 µM", "setting": "Panc-1", "result": 26, "unit": "%"}, {"measurement": "IC50", "setting": "IL-2 secretion", "result": 8, "unit": "µM"}, {"measurement": "Inhibition of COX-2 gene expression", "setting": "COX-2 gene expression", "result": 88, "unit": "%"}]}]}
